Experimental data from US8431593B2, “Heteroaryl amide derivatives” (H. Lundbeck A/S, priority 2006, dated 2013).

Molecular target: T1, P2X7 receptor (Homo sapiens, UniProt Q99572)
T1 construct: host or cells: SH-SY5Y
T1 sequence (Q99572 1-595): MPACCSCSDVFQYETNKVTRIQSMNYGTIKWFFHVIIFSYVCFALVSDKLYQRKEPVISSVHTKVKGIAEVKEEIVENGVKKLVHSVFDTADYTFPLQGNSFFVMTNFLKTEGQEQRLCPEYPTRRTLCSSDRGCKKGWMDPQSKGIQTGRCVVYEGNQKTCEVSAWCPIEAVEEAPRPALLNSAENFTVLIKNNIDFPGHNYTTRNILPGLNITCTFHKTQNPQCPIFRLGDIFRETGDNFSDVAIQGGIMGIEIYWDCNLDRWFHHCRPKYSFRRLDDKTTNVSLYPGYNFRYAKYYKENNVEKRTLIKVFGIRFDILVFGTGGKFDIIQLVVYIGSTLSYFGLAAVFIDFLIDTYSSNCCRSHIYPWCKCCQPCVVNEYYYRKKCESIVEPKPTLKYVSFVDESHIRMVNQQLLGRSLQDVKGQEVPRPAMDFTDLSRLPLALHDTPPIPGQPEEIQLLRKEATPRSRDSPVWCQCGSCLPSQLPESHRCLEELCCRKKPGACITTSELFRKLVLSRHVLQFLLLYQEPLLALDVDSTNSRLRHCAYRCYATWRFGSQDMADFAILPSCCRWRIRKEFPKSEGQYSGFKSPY
Experiment: P2X7 calcium mobilization assay, high throughput, antagonist activity (Example 4A)
Format: cell-based
Conditions: 50% decrease in the fluorescence response of cells exposed to 80 μM of 2′(3′)-O-(4-benzoyl-benzoyl)adenosine 5′-triphosphate; Example 4A; read-out: IC50
Outline: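 100,000 cells/well, plated day -1. Dye 1 h → rinse → compound 1 h, RT → FLIPR^TETRA Ca2+ mobilization. Max RFU minus mean negative control (no agonist); mean agonist-well max as positive control.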

Structure (SMILES)	IC50
O=C(N[C@@H]1CN2CCC1CC2)c1cn2c(C(=O)NCC34CC5CC(CC(C5)C3)C4)cccc2n1 [Compound 662, 5-N-(adamantan-1-ylmethyl)-2-N-[(3S)-1-azabicyclo[2.2.2]oct-3-yl]imidazo[1,2-a]pyridine-2,5-dicarboxamide]	< 2000 nM
CN1CCCCC1CCNC(=O)c1cn2c(C(=O)NCC34CC5CC(CC(C5)C3)C4)cccc2n1 (centres unmarked) [Compound 664, 5-N-(adamantan-1-ylmethyl)-2-N-[2-(1-methylpiperidin-2-yl)ethyl]imidazo[1,2-a]pyridine-2,5-dicarboxamide]	< 2000 nM
CN1CCCCC1CNC(=O)c1cn2c(C(=O)NCC34CC5CC(CC(C5)C3)C4)cccc2n1 (centres unmarked) [Compound 666, 5-N-(adamantan-1-ylmethyl)-2-N-[(1-methylpiperidin-2-yl)methyl]imidazo[1,2-a]pyridine-2,5-dicarboxamide]	< 2000 nM
CN1C2CCC1CC(NC(=O)c1cn3c(C(=O)NCC45CC6CC(CC(C6)C4)C5)cccc3n1)C2 (centres unmarked) [Compound 667, 5-N-(adamantan-1-ylmethyl)-2-N-(8-methyl-8-azabicyclo[3.2.1]oct-3-yl)imidazo[1,2-a]pyridine-2,5-dicarboxamide]	< 2000 nM
CN1CCCC(CNC(=O)c2cn3c(C(=O)NCC45CC6CC(CC(C6)C4)C5)cccc3n2)C1 (centres unmarked) [Compound 668, 5-N-(adamantan-1-ylmethyl)-2-N-[(1-methylpiperidin-3-yl)methyl]imidazo[1,2-a]pyridine-2,5-dicarboxamide]	< 2000 nM
CN(C)C1CCN(C(=O)c2cn3c(C(=O)NCC45CC6CC(CC(C6)C4)C5)cccc3n2)CC1 [Compound 669, N-(adamantan-1-ylmethyl)-2-{[4-(dimethylamino)piperidin-1-yl]carbonyl}imidazo[1,2-a]pyridine-5-carboxamide]	< 2000 nM
CN(C)CCCN(C)C(=O)c1cn2c(C(=O)NCC34CC5CC(CC(C5)C3)C4)cccc2n1 [Compound 670, 5-N-(adamantan-1-ylmethyl)-2-N-[3-(dimethylamino)propyl]-2-N-methylimidazo[1,2-a]pyridine-2,5-dicarboxamide]	< 2000 nM

Second part, the compound after the results:

IC50	Structure (SMILES)
< 2000 nM	O=C(NCCCN1CCOCC1)c1cn2c(C(=O)NCC34CC5CC(CC(C5)C3)C4)cccc2n1 [Compound 654, 5-N-(adamantan-1-ylmethyl)-2-N-(3-morpholin-4-ylpropyl)imidazo [1,2-a]pyridine-2,5-dicarboxamide]
< 2000 nM	O=C(NCc1cccnc1)c1cn2c(C(=O)NCC34CC5CC(CC(C5)C3)C4)cccc2n1 [Compound 655, 5-N-(adamantan-1-ylmethyl)-2-N-(pyridin-3-ylmethyl) imidazo[1,2-a]pyridine-2,5-dicarboxamide]
< 2000 nM	Cc1cnc(CNC(=O)c2cn3c(C(=O)NCC45CC6CC(CC(C6)C4)C5)cccc3n2)cn1 [Compound 656, 5-N-(adamantan-1-ylmethyl)-2-N-[(5-methylpyrazin-2-yl)methyl]imidazo[1,2-a]pyridine-2,5-dicarboxamide]
< 2000 nM	CCN(CC)CCCNC(=O)c1cn2c(C(=O)NCC34CC5CC(CC(C5)C3)C4)cccc2n1 [Compound 658, 5-N-(adamantan-1-ylmethyl)-2-N-[3-(diethylamino)propyl] imidazo[1,2-a] pyridine-2,5-dicarboxamide]
< 2000 nM	CN1CCC(NC(=O)c2cn3c(C(=O)NCC45CC6CC(CC(C6)C4)C5)cccc3n2)CC1 [Compound 659, 5-N-(adamantan-1-ylmethyl)-2-N-(1-methylpiperidin-4-yl)imidazo[1,2-a]pyridine-2,5-dicarboxamide]
< 2000 nM	O=C(NCCc1ccncc1)c1cn2c(C(=O)NCC34CC5CC(CC(C5)C3)C4)cccc2n1 [Compound 660, 5-N-(adamantan-1-ylmethyl)-2-N-(2-pyridin-4-ylethyl)imidazo[1,2-a]pyridine-2,5-dicarboxamide]
< 2000 nM	O=C(NCc1ccncc1)c1cn2c(C(=O)NCC34CC5CC(CC(C5)C3)C4)cccc2n1 [Compound 661, 5-N-(adamantan-1-ylmethyl)-2-N-(pyridin-4-ylmethyl)imidazo [1,2-a]pyridine-2,5-dicarboxamide]
